According to patent US8426446B2, “Acrylamide derivative and use thereof in manufacture of medicament” (Beijing Shiqiao Biopharm Co. Ltd., priority 2009, dated 2013):

System: Human Leukemia Cell K562
Experiment: Inhibitory effects on Human Leukemia Cell K562 (MTT)
Assay type: cell-based
Settings: Homo sapiens, K562 cells, 72 h~120 h
Protocol: K562 cells were seeded in RPMI1640 cell culture solution containing 10% of fetal calf serum (supplemented with 100 ku/L of penicillin and streptomycin each). Culture dish was placed in the cell incubator under 5% of CO2 at 37° C. The culture solution was centrifuged and replaced every 2-3 days to passage and collect cells.
Cells in logarithmic growth phase were formulated into the cell suspensions at the required concentration with RPMI1640 culture solution containing 10% fetal calf serum. The resulting mixture was added to 96-wells cell culture plate at 3,000 cells per well (100 μl); after 12 hours of culture, to each well was added different amount of stock solution. The final concentrations of the samples are 100 μg/ml, 10 μg/ml, 1 μg/ml, […], and 0.01 μg/ml respectively in triplicate. After 72 h˜120 h, supernatant was discarded. To each well was added […] fresh serum-free culture solution containing 5 mg/ml blue tetrazolium (MTT). After culturing for 4 hours at 37° C., the mixture was centrifuged at 3000 rpm/min and the supernatant was discarded. Formazan was dissolved with 200 μl DMSO. After vortex oscillation for 1 min, absorbance value (OD-value) was measured on microplate reader at the wavelength of 570/450 nm. Inhibition ratio=(control group OD-value−drug group OD-value)/control group OD-value×100%.

| IC50 [nM] | SMILES |
| --- | --- |
| < 1 | Cc1ccc(C(=O)Nc2ccc(F)c(C(F)(F)F)c2)cc1NC(=O)/C=C/c1cccnc1 [compound 60, N-(4-fluoro-3-(trifluoromethyl)phenyl)-4-methyl-3-(3-(pyridin-3-yl)acrylamido)benzamide] |
| < 1 | Cc1ccc(NC(=O)c2ccc(C)c(NC(=O)/C=C/c3cccnc3)c2)cc1F [compound 61, N-(3-fluoro-4-methylphenyl)-4-methyl-3-(3-(pyridin-3-yl)acrylamido)benzamide] |
| < 1 | Cc1ccc(C(=O)Nc2ccc(C)c(C(F)(F)F)c2)cc1NC(=O)/C=C/c1cccnc1 [compound 62, N-(4-methyl-3-(trifluoromethyl)phenyl)-4-methyl-3-(3-(pyridin-3-yl)acrylamido)benzamide] |
| < 1 | Cc1ccc(C(=O)Nc2ccc(C)c(C(F)(F)F)c2)cc1NC(=O)/C=C/c1cncnc1 [compound 77, N-(4-methyl-3-(trifluoromethyl)phenyl)-4-methyl-3-(3-(pyrimidin-5-yl)acrylamido)benzamide] |
| < 1 | Cc1ccc(C(=O)Nc2ccc(N3CCOCC3)c(C(F)(F)F)c2)cc1NC(=O)/C=C/c1cncnc1 [compound 78, N-(4-(morpholin-4-yl)-3-(trifluoromethyl)phenyl)-4-methyl-3-(3-(pyrimidin-5-yl)acrylamido)benzamide] |
| 2 to 20 | Cc1ccc(C(=O)Nc2ccc(Cl)c(C(F)(F)F)c2)cc1NC(=O)/C=C/c1cncnc1 [compound 79, N-(4-chloro-3-(trifluoromethyl)phenyl)-4-methyl-3-(3-(pyrimidin-5-yl)acrylamido)benzamide] |
| 2 to 20 | Cc1ccc(NC(=O)c2ccc(C)c(NC(=O)/C=C/c3cncnc3)c2)cc1F [compound 80, N-(3-fluoro-4-methylphenyl)-4-methyl-3-(3-(pyrimidin-5-yl)acrylamido)benzamide] |
| < 20 | Cc1ccc(C(=O)Nc2ccc(F)c(Cl)c2)cc1NC(=O)/C=C/c1cncnc1 [compound 81, N-(3-chloro-4-fluorophenyl)-4-methyl-3-(3-(pyrimidin-5-yl)acrylamido)benzamide] |
| < 20 | Cc1ccc(C(=O)Nc2c(C)cccc2Cl)cc1NC(=O)/C=C/c1cncnc1 [compound 82, N-(2-chloro-6-methylphenyl)-4-methyl-3-(3-(pyrimidin-5-yl)acrylamido)benzamide] |

The next lines start with the molecule.

| SMILES | IC50 [nM] |
| --- | --- |
| Cc1ccc(NC(=O)c2ccc(C)c(NC(=O)/C=C/c3cccnc3)c2)cc1 [compound 66, N-(4-(methyl)phenyl)-4-methyl-3-(3-(pyridin-3-yl)acrylamido)benzamide] | 2 to 20 |
| Cc1ccc(C(=O)Nc2c(C)cccc2Cl)cc1NC(=O)/C=C/c1cccnc1 [compound 67, N-(2-chloro-6-methylphenyl)-4-methyl-3-(3-(pyridin-3-yl)acrylamido)benzamide] | 2 to 20 |
| Cc1ccc(C(=O)Nc2ccc(N3CCOCC3)c(C(F)(F)F)c2)cc1NC(=O)/C=C/c1cccnc1 [compound 69, N-(4-(morpholin-4-yl)-3-(trifluoromethyl)phenyl)-4-methyl-3-(3-(pyridin-3-yl)acrylamido)benzamide] | < 1 |
| Cc1ccc(C(=O)Nc2ccc(N3CCN(C)CC3)c(C(F)(F)F)c2)cc1NC(=O)/C=C/c1cccnc1 [compound 71, N-(4-(4-methylpiperazin-1-yl)-3-(trifluoromethyl)phenyl)-4-methyl-3-(3-(pyridin-3-yl)acrylamido)benzamide] | < 1 |
| CCN1CCN(c2ccc(NC(=O)c3ccc(C)c(NC(=O)/C=C/c4cccnc4)c3)cc2C(F)(F)F)CC1 [compound 74, N-(4-(4-ethylpiperazin-1-yl)-3-(trifluoromethyl)phenyl)-4-methyl-3-(3-(pyridin-3-yl)acrylamido)benzamide] | 2 to 20 |
| Cc1cn(-c2cc(NC(=O)c3ccc(C)c(NC(=O)/C=C/c4cncnc4)c3)cc(C(F)(F)F)c2)cn1 [compound 90, N-(3-(4-methyl-1H-imidazol-1-yl)-5-(trifluoromethyl)phenyl)-4-methyl-3-(3-(pyrimidin-5-yl)acrylamido)benzamide] | < 1 |
| Cc1ccc(NC(=O)Nc2ccc(F)c(Cl)c2)cc1NC(=O)/C=C/c1cccnc1 [compound 102, N-(5-(3-(3-chloro-4-fluorophenyl)ureido)-2-methylphenyl)-3-(pyridin-3-yl)acrylamide] | 10 to 20 |
